# In ChEMBL document CHEMBL4145615, “Indolyl Azaspiroketal Mannich Bases Are Potent Antimycobacterial Agents with Selective Membrane Permeabilizing Effects and in Vivo Activity” (J Med Chem, 2018):
# Tested on: Mycobacterium tuberculosis variant bovis BCG
# Assay: Antimycobacterial activity against Mycobacterium bovis BCG ATCC 35734 after 5 days by broth dilution method
# Assay type: functional
# Conditions: ATCC 35734, 120 h
Structure (SMILES),MIC50 [µM],MIC90 [µM]
CCCCCCCCn1cc(CN2CCCC3(C2)CC3(F)F)c2ccc(OC)cc21 (stereo not given),13,25
CCCCCCCCn1cc(CN2CCCCC2)c2ccc([N+](=O)[O-])cc21,4,5
CCCCCCCCn1cc(CN2CCC3(CC2)OCCO3)c2ccc(OC(C)C)cc21,3,6
COc1ccc2c(CN3CCC4(CC3)OCCO4)cn(CCCCc3ccccc3)c2c1,4.9,11.5
CCCCCCCCn1cc(CN2CCC3(CC2)OCCO3)c2ccc([N+](=O)[O-])cc21,0.8,1.6
CCCCCCCCn1cc(CN2CC(n3cccn3)C2)c2ccc(OC)cc21,6,15
CCCCCCCCn1cc(CNCC2CC3CCC2C3)c2ccc(OC)cc21 (stereo not given),1.1,1.9
CCCCCCCCn1cc(CN2CCC3(CC2)OCCCO3)c2ccc([N+](=O)[O-])cc21,0.3,0.8
CCCCCCCCn1cc(CN2CCC3(CC2)OCCCO3)c2ccc(OC(C)C)cc21,0.6,1.6
CCCCCCCCn1cc(CN2[C@H]3CCC[C@@H]2CCC3)c2ccc(OC)cc21,3.8,7.6
CCCCCCCCn1ccc2ccc(OCCCN3CCC4(CC3)OCCCO4)cc21,5.6,28
COc1ccc2c(CN3CCCCC3)cn(CCCOc3ccc(F)cc3)c2c1,20,43
CCCCCCCCn1cc(CN2CCC3(CC2)OC[C@@H](C)O3)c2ccc(OC)cc21,0.6,0.8
CCCCCCCCn1cc(CN2CC3C(C2)C3(F)F)c2ccc(OC)cc21 (stereo not given),21,50
CCCCCCCCn1cc(CN2CCC3(CC2)CNC(=O)O3)c2ccc(OC)cc21,22,43
CCCCCCCCn1cc(CN2CCCCC2)c2ccc(OC(C)C)cc21,4,6
CCCCCCCCn1cc(CN2CCC3(CC2)OCCCO3)c2cccc([N+](=O)[O-])c21,1.3,3.1
COc1ccc(OCCCn2cc(CN3CCC4(CC3)OCCO4)c3ccc(OC)cc32)cc1,6,13
COc1ccc2c(CN3CCC4(CC3)OCCCO4)cn(C/C=C/c3ccccc3)c2c1,4.8,9
CCCCCCCCn1ccc2cccc(OCCCN3CCCC3)c21,10,22
COc1ccc(CCCn2cc(CN3CCC4(CC3)OCCCO4)c3ccc(OC)cc32)cc1,4.1,9.3
COc1ccc2c(CN3CCCCC3)cn(C/C=C/c3ccccc3)c2c1,31,49
COc1ccc2c(CN3CCCCC3)cn(CCCCOc3ccccc3)c2c1,16,41
CCCCCCCCn1ccc2ccc(OCCCN3CCCCC3)cc21,13,25
COc1ccc2c(CN3CCCCC3)cn(CCCOc3ccc(C)cc3)c2c1,19,41
COc1ccc2c(CN3CCC4(CC3)OCCCO4)cn(CCCCc3ccccc3)c2c1,1.6,3.1
CCCCCCCCn1cc(CN2CCC3(CC2)OC[C@H](C)O3)c2ccc(OC)cc21,0.5,0.9
COc1ccc2c(CN3CCC4(CC3)OCCCO4)cn(CCCOc3ccc(F)cc3)c2c1,1.5,2.6
COc1ccc2c(CN3CCC4(CC3)OCCO4)cn(CCCOc3ccccc3)c2c1,3,10
CCCCCCCCn1cc(CN2CCC3(CC2)OCCCO3)c2ccc(C#N)cc21,0.5,1.2
